Source: patent US11351178B2, “Selective HDAC6 inhibitors” (ITALFARMACO S.P.A., priority 2017, dated 2022)

Tests used:
[1] = Stability to Phase I metabolism in human S9 liver fraction; format: in vitro ADME
Method: Test compounds were incubated in rat and human liver S9 fraction at 37° C. up to 90 minutes in order to evaluate their stability to Phase I metabolism by hepatic enzymes. […] The reaction was stopped placing samples on ice bath and adding acidified acetonitrile. After centrifugation (10 minutes at 14000 rpm) an aliquot of the supernatant was diluted water, filtered with 0.45 μm regenerated cellulose syringe filters and injected in HPLC-UV or in LC-MS/MS. The percentages of the amount remaining at the various incubation times with respect to the initial amount were calculated. The intrinsic clearance was also calculated.

[2] = molecular target: T1, recombinant human HDAC6 (Homo sapiens, UniProt Q9UBN7); assay: Enzymatic screening on recombinant human HDAC6; format: biochemical; details: Table 2; read-out: HDAC6 IC50
T1 sequence (Q9UBN7 1-1215): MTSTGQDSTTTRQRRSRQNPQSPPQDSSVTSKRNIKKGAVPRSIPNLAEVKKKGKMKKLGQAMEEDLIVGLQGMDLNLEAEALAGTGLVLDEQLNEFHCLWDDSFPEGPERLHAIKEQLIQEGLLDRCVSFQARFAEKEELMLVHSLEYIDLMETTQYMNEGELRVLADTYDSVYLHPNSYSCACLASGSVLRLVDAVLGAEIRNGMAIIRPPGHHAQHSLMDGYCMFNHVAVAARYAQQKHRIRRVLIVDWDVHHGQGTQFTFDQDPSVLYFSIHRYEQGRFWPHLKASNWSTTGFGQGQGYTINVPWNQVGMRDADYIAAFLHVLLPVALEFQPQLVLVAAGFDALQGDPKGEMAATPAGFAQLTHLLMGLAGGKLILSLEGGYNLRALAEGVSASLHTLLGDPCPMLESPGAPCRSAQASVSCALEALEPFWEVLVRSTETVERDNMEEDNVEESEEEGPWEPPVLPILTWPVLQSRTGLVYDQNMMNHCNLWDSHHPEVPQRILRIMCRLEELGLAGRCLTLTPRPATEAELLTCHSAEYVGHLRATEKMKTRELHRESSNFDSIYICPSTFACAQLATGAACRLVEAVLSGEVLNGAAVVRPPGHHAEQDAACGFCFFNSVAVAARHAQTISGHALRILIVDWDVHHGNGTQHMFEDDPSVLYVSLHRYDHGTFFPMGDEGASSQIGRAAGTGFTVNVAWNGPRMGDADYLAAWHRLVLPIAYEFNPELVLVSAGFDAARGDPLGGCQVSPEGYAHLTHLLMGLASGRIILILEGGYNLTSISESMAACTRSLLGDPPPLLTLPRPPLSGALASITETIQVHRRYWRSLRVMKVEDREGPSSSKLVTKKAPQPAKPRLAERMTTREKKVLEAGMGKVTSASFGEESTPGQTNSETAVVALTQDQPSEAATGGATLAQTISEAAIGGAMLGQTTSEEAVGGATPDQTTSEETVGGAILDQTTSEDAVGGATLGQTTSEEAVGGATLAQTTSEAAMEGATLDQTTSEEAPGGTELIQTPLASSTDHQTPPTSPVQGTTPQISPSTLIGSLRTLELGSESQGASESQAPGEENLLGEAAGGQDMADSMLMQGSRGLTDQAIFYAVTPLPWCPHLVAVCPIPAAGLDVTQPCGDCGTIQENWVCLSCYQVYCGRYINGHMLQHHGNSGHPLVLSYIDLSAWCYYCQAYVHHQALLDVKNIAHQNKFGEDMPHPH
How it was run: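 Recombinant human HDAC isoforms were incubated with compound at 30 °C for isoform-specific times. Fluor de Lys, Fluor de Lys-Green or trifluoroacetyl-lysine substrate in Tris-HCl pH 8 buffer with NaCl, Tween-20 and glycerol was then added, followed by reaction at 30 °C.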

[3] = Stability in human plasma; format: in vitro ADME; details: after 4 hours, 37° C.
Method: In order to evaluate the stability to circulating enzymes, test compounds were incubated in human and rat plasma at 37° C. in a thermostated oscillating bath. Each test compound was incubated at μM (50 μM when the samples were analysed by UV/HPLC, 1 or 2 μM when the samples were analysed by LC-MS/MS) concentration for 0, 15, 30 min and 1, 2 and 4 hours. The reaction was stopped placing tubes on ice bath and adding acidified acetonitrile. After centrifugation for 10 minutes at 14000 rpm, an aliquot of the supernatant was diluted with water, filtered with 0.45 μm syringe filters and injected in HPLC-UV or in LC-MS/MS. The percentages of amount remaining at the various times of incubation with respect to initial amount were calculated. The half-life in plasma was also calculated.

[4] = Stability to Phase I metabolism in rat S9 liver fraction; format: in vitro ADME; details: after 90 min, 37° C.
How it was run: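 Compounds were incubated with rat or human liver S9 fraction at 37 °C for up to 90 min. Reactions were quenched on ice with acidified acetonitrile and analysed by HPLC-UV or LC-MS/MS. Percent remaining versus time zero and intrinsic clearance were calculated.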

[5] = Stability in rat plasma; format: in vitro ADME; details: after 4 hours, 37° C.
How it was run: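 Compounds incubated at 37° C in rat or human plasma at 50 μM (UV/HPLC) or 1 or 2 μM (LC-MS/MS) for 0–4 h. Reaction stopped with acidified acetonitrile on ice; percent remaining versus initial amount and plasma half-life calculated.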

Question: For `O=C(NO)c1ccc(Cc2noc(-c3ccnc(N4CCOCC4)c3)n2)cc1` [compound 193, 4-[[5-(2-morpholino-4-pyridyl)-1,2,4-oxadiazol-3-yl]methyl]benzenecarbohydroxamic acid], which “residual percentage in human S9 fraction” value ([1]; human, 90 min, pH 7.4) is on record?
Answer: 71%

Question: What about the IC50 [2] of the same molecule?
Answer: 6 nM

Question: What about the “residual percentage in human plasma” value [3] of the same molecule?
Answer: 100%

Question: What about the “residual percentage in rat S9 fraction” value [4] of the same molecule?
Answer: 63%

Question: And the “residual percentage in rat plasma” value [5]?
Answer: 81%

Question: Which results are given for `COCCN(CCOC)c1cncc(-c2nc(Cc3c(F)cc(C(=O)NO)cc3F)no2)c1` [compound 200, 4-[[5-[5-[bis(2-methoxyethyl)amino]-3-pyridyl]-1,2,4-oxadiazol-3-yl]methyl]-3,5-difluoro-benzenecarbohydroxamic acid]?
Answer: residual percentage in human S9 fraction ([1]; human, 90 min, pH 7.4): 37%; IC50 [2]: 8 nM; residual percentage in human plasma [3]: 102%; residual percentage in rat S9 fraction [4]: 32%; residual percentage in rat plasma [5]: 96%

Question: Which “residual percentage in human S9 fraction” value ([1]; human, 90 min, pH 7.4) does the source give for `CN(C)Cc1ccc(-c2nnc(Sc3c(F)cc(C(=O)NO)cc3F)n2C)o1` [comp. 206, 4-[[5-[5-[(dimethylamino)methyl]-2-furyl]-4-methyl-1,2,4-triazol-3-yl]sulfanyl]-3,5-difluoro-benzenecarbohydroxamic acid] here?
Answer: 97%

Question: And the IC50 [2]?
Answer: 7 nM

Question: And the “residual percentage in human plasma” value [3]?
Answer: 92%

Question: And the “residual percentage in rat S9 fraction” value [4]?
Answer: 50%

Question: And the “residual percentage in rat plasma” value [5]?
Answer: 88%

Question: For `CCN(CC)Cc1ccc(-c2nnc(Sc3c(F)cc(C(=O)NO)cc3F)n2C)o1` [comp. 211, 4-[[5-[5-(diethylaminomethyl)-2-furyl]-4-methyl-1,2,4-triazol-3-yl]sulfanyl]-3,5-difluoro-benzenecarbohydroxamic acid], which “residual percentage in human S9 fraction” value ([1]; human, 90 min, pH 7.4) is on record?
Answer: 59%

Question: What about the IC50 [2] of the same molecule?
Answer: 8 nM

Question: And the “residual percentage in human plasma” value [3]?
Answer: 76%

Question: And the “residual percentage in rat S9 fraction” value [4]?
Answer: 67%

Question: And the “residual percentage in rat plasma” value [5]?
Answer: 86%

Question: With `Cn1c(Sc2c(F)cc(C(=O)NO)cc2F)nnc1-c1ccco1` [comp. 199, 3,5-difluoro-4-[[5-(2-furyl)-4-methyl-1,2,4-triazol-3-yl]sulfanyl]benzenecarbohydroxamic acid] as the molecule, how does the “residual percentage in human S9 fraction” value ([1]; human, 90 min, pH 7.4) read?
Answer: 75%

Question: What about the IC50 [2] of the same molecule?
Answer: 6 nM

Question: What about the “residual percentage in human plasma” value [3] of the same molecule?
Answer: 90%

Question: What about the “residual percentage in rat S9 fraction” value [4] of the same molecule?
Answer: 57%

Question: And the “residual percentage in rat plasma” value [5]?
Answer: 92%

Question: For `O=C(NO)c1cc(F)c(Sc2nnc(-c3cncc(Br)c3)s2)c(F)c1` [compound 196, 4-[[5-(5-bromo-3-pyridyl)-1,3,4-thiadiazol-2-yl]sulfanyl]-3,5-difluoro-benzenecarbohydroxamic acid], which “residual percentage in human S9 fraction” value ([1]; human, 90 min, pH 7.4) is on record?
Answer: 26%

Question: And the IC50 [2]?
Answer: 53 nM

Question: And the “residual percentage in human plasma” value [3]?
Answer: 89%

Question: And the “residual percentage in rat S9 fraction” value [4]?
Answer: 23%

Question: And the “residual percentage in rat plasma” value [5]?
Answer: 99%

Question: Which “residual percentage in human S9 fraction” value ([1]; human, 90 min, pH 7.4) does the source give for `O=C(NO)c1ccc(Sc2nnc(-c3ccccc3)o2)cc1` [comp. 188, 4-[(5-phenyl-1,3,4-oxadiazol-2-yl)sulfanyl]benzenecarbohydroxamic acid] here?
Answer: 49%

Question: What about the IC50 [2] of the same molecule?
Answer: 7 nM

Question: And the “residual percentage in human plasma” value [3]?
Answer: 90%

Question: And the “residual percentage in rat S9 fraction” value [4]?
Answer: 7%

Question: What about the “residual percentage in rat plasma” value [5] of the same molecule?
Answer: 93%

Question: For `O=C(NO)c1cc(F)c(Cc2noc(-c3cncc(N4CC5(COC5)C4)c3)n2)c(F)c1` [compound 201, 3,5-difluoro-4-[[5-[5-(2-oxa-6-azaspiro[3.3]heptan-6-yl)-3-pyridyl]-1,2,4-oxadiazol-3-yl]methyl]benzenecarbohydroxamic acid], which “residual percentage in human S9 fraction” value ([1]; human liver S9 fraction, after 90 min, 37° C.) is on record?
Answer: 75%

Question: And the IC50 [2]?
Answer: 16 nM

Question: What about the “residual percentage in human plasma” value [3] of the same molecule?
Answer: 88%

Question: And the “residual percentage in rat S9 fraction” value [4]?
Answer: 34%

Question: What about the “residual percentage in rat plasma” value [5] of the same molecule?
Answer: 95%

Question: What does the source list for `O=C(NO)c1cc(F)c(Cc2noc(-c3ccccc3)n2)c(F)c1` [compound 194, 3,5-difluoro-N-hydroxy-4-((5-phenyl-1,2,4-oxadiazol-3-yl)methyl)benzamide]?
Answer: residual percentage in human S9 fraction ([1]; human, 90 min, pH 7.4): 29%; IC50 [2]: 11 nM; residual percentage in human plasma [3]: 99%; residual percentage in rat S9 fraction [4]: 3%; residual percentage in rat plasma [5]: 89%

Question: What does the source list for `O=C(NO)c1cc(F)c(Cc2nnc(-c3cncc(N4CCOCC4)c3)s2)c(F)c1` [compound 197, 3,5-difluoro-4-[[5-(5-morpholino-3-pyridyl)-1,3,4-thiadiazol-2-yl]methyl]benzenecarbohydroxamic acid]?
Answer: residual percentage in human S9 fraction ([1]; human, 90 min, pH 7.4): 86%; IC50 [2]: 10 nM; residual percentage in human plasma [3]: 96%; residual percentage in rat S9 fraction [4]: 62%; residual percentage in rat plasma [5]: 82%

Question: For `CN(c1ccc(-c2nnc(Sc3c(F)cc(C(=O)NO)cc3F)s2)cc1)S(C)(=O)=O` [compound 187, 3,5-difluoro-4-[[5-[4-[methyl(methylsulfonyl)amino]phenyl]-1,3,4-thiadiazol-2-yl]sulfanyl]benzenecarbohydroxamic acid], which “residual percentage in human S9 fraction” value ([1]; human, 90 min, pH 7.4) is on record?
Answer: 54%

Question: What about the IC50 [2] of the same molecule?
Answer: 55 nM

Question: And the “residual percentage in human plasma” value [3]?
Answer: 92%

Question: What about the “residual percentage in rat S9 fraction” value [4] of the same molecule?
Answer: 17%

Question: And the “residual percentage in rat plasma” value [5]?
Answer: 101%

Question: With `O=C(NO)c1cc(F)c(Sc2nnc(-c3cccnc3)s2)c(F)c1` [comp. 191, 3,5-difluoro-N-hydroxy-4-((5-(pyridin-3-yl)-1,3,4-thiadiazol-2-yl)thio)benzamide] as the molecule, how does the “residual percentage in human S9 fraction” value ([1]; human, 90 min, pH 7.4) read?
Answer: 42%

Question: And the IC50 [2]?
Answer: 22 nM

Question: What about the “residual percentage in human plasma” value [3] of the same molecule?
Answer: 93%

Question: And the “residual percentage in rat S9 fraction” value [4]?
Answer: 35%

Question: What about the “residual percentage in rat plasma” value [5] of the same molecule?
Answer: 92%

Question: With `O=C(NO)c1cc(F)c(Sc2nnc(-c3ccccc3)o2)c(F)c1` [comp. 192, 3,5-difluoro-4-[(5-phenyl-1,3,4-oxadiazol-2-yl)sulfanyl]benzenecarbohydroxamic acid] as the molecule, how does the “residual percentage in human S9 fraction” value ([1]; human, 90 min, pH 7.4) read?
Answer: 43%

Question: And the IC50 [2]?
Answer: 31 nM

Question: And the “residual percentage in human plasma” value [3]?
Answer: 100%

Question: What about the “residual percentage in rat S9 fraction” value [4] of the same molecule?
Answer: 17%

Question: What about the “residual percentage in rat plasma” value [5] of the same molecule?
Answer: 90%
